Measured values from US20220152117A1, “METHODS OF PROMOTING CELLULAR MATURATION WITH AMPK ACTIVATORS” (UNIVERSITY OF WASHINGTON, priority 2019, published 2022).
“And” between values parts separate entries of the source, which are not always exact repeats. Identical values can stand only once.

Key:
hPSC-CMs = assay: Quantitative RT-PCR gene expression in cardiomyocytes; format: cell-based, human
Method: Total RNA was isolated using the Qiagen RNeasy Kit™, and mRNA was reverse transcribed using the Superscript™ III first strand cDNA synthesis kit (Invitrogen®). All primers were purchased from Real Time Primers, and qRT-PCR was performed using SYBR™ green chemistry and an ABI 7900HT instrument or TAQMAN™ with BIORad CXF384™. Samples were normalized using hypoxanthine-guanine phosphoribosylthransferase (HPRT) as a housekeeping gene. The sequences of the primers are listed below in Table 1. The primers used for titin isoforms were adapted from^29. All Q-RT-PCR assays were performed in triplicate on control and experimental groups and firstly normalized to hHPRT level and then normalized against control cardiomyocytes. N=4-5 independent experiments.

[1] = system: hiPSC-derived cardiomyocytes; assay: Contractile force assessment on micropost arrays; format: cell-based, human; details: 1 mM AICAR for one week
Method: Contractile force was assessed using micropost arrays, following a procedure similar to previously reported studies on cardiomyocytes^2, 31, 32. The process used to fabricate the micropost arrays is described in detail elsewhere^33, 34. The microposts (6.45 μm in height, 2.3 μm in diameter, 6 μm center-to-center post spacing) were cast onto 25 mm diameter round #1 glass coverslips (VWR®). To enable cell attachment, the tips of these microposts were stamped with 50 μg/ml of mouse laminin (Life Technologies®) via microcontact printing, while the remaining surfaces of the micropost array were fluorescently stained with BSA conjugates with Alexa Fluor 594 and blocked with 0.2% Pluronic F-127 (in PBS)^34. Twenty days following differentiation, hiPSC-derived cardiomyocytes were seeded onto the micropost arrays in Attoflour chambers at a density of approximately 500,000 cells per chamber (˜100,000 cells/cm^2), in RPMI media supplemented with 5% fetal bovine serum. After 24 hours, the medium was replaced with serum-free RPMI-B27 plus insulin, which then was exchanged every other day. Beginning two days after seeding, half of the substrates were treated with 1 mM AICAR for one week. Prior to live imaging, the media was exchanged to Tyrode's buffer. Individual cardiomyocyte twitch forces were recorded under phase light using high-speed video microscopy in a live cell chamber at 37° C., as previously described^32. Only the contractile forces of single cardiomyocytes (no junctions with adjacent cells) with obvious beating activity were assessed. Post deflections were optically measured at approximately 100 frames/sec on a Nikon Ti-E™ upright microscope with a 60× water immersion objective. A custom-written MATLAB™ code was used to compare each time frame of the video to a reference fluorescent image taken at the base of the posts. Contractile forces were subsequently calculated by multiplying the deflection of each microposts by its bending stiffness: F=kδ (1) where F is the force at a single micropost, k is the post's bending stiffness (44.54 nN/μm for this study), and δ is the horizontal distance between the centroid of the post's tip and the centroid of the post's base. The total contractile force for each cardiomyocyte was calculated as the sum of the forces at each post beneath it. The passive tension, or baseline force, was defined as the contractile force when a cardiomyocyte was at rest, i.e. in between beats. The total twitch force was defined as the difference between the peak contractile force (achieved during a twitch) and the passive tension. Additionally, the average twitch force per post was analyzed in order to normalize the total twitch force by cell area. The average twitch force per post was calculated as the total twitch force divided by the number of posts underneath a cardiomyocyte. Passive tension, total twitch force, average twitch force per post, and beating frequency were used to compare the independent biological replicates (N=2, with 16-38 cells per independent biological replicate).

[2] = AICAR treated vs control hPSC-CMs
[3] = hPSC-CMs, normalized to HPRT then to control cells
[4] = normalized to HPRT then to control cells

NC(=O)c1ncn([C@@H]2O[C@H](CO)[C@@H](O)[C@H]2O)c1N [AICAR, 5-amino-4-imidazolecarboxamide riboside-1-β-D-ribofuranoside]
cTnI expression levels (hPSC-CMs; [2]): upregulated
ssTnI to cTnI ratio (hPSC-CMs; [2]): significantly downregulated
titin N2B expression level (hPSC-CMs; [2]): significantly upregulated
titin N2BA expression level (hPSC-CMs; [2]): did not change
titin N2BA to N2B ratio (hPSC-CMs; [2]): significantly down-regulated
total titin expression level (hPSC-CMs; [2]): did not change
FABP and PDK4 gene expression levels in cardiomyocytes derived from RUES2 hESCs (hPSC-CMs; RUES2 hESC-derived cardiomyocytes): same trend of changes
fatty acid binding protein (FABP) expression level (hPSC-CMs; [3]): significant increase
pyruvate dehydrogenase kinase-4 (PDK4) expression level (hPSC-CMs; [3]): significant increase
PGC-1α mRNA level (hPSC-CMs; [4]): 2.07±0.31
estrogen-related receptor α (ERR α) mRNA level (hPSC-CMs; [4]): 1.50±0.12
mitochondrial transcription factor A (TFAM) mRNA level (hPSC-CMs; [4]): 2.03±0.11
peroxisome proliferator activated receptor alpha (PPARα) mRNA level (hPSC-CMs; [4]): 1.78±0.22
KCNJ2 expression (hPSC-CMs; vs. control): 1.71±0.17 fold
SCN5a expression (hPSC-CMs; vs. control): 1.58±0.2 fold
α-myosin heavy chain (α-MHC) expression (hPSC-CMs; vs. control): 2.64±0.51 fold
beating frequency ([1]; control 0.87±0.07): 0.49±0.04 Hz
twitch force ([1]; control 9.7±0.7): 14.1±1.6 nN/cell and ~14.1 nN/cell
passive tension ([1]; control 82.68±4.35): 114.77±7.93 nN/cell
cellular size on microposts ([1]; control 213±5): 260±11 μm^2
average twitch force per post ([1]; controls ~1.2): ~1.4 nN/post
